Experimental data published in EP4748837A1, “AROMATIC AMIDE DERIVATIVE, AND PREPARATION METHOD THEREFOR AND USE THEREOF” (Zhejiang Hisun Pharmaceutical Co., Ltd., priority 2023, dated 2025).

Key:
[1] = target: T1, recombinant human KIF18A (Homo sapiens, UniProt Q8NI77); test: Inhibition of KIF18A enzyme activity (ADP-Glo assay); assay type: biochemical; conditions: recombinant human KIF18A 100 nM, ATP 60 µM, tubulin, paclitaxel; read-out: IC50
T1 construct: purchased GenScript
Experimental: Inhibition degrees of the compounds of the present invention on recombinant human KIF18A enzyme activity in vitro were determined by the following method. An ADP-Glo™ Kinase Assay kit (article number V9102) from Promega Company was used in this method. Detailed experimental operation referred to the instruction of the kit.
An experimental process was briefly described as follows: a test compound was dissolved in DMSO first to prepare a stock solution, then the stock solution was gradiently diluted with a reaction buffer A ([…], 0.01% Pluronic F-68), and a final concentration of the test compound in the reaction system was in a range of 10000 nM-0.15 nM; and a KIF18A protein and ATP working solution was prepared by using a reaction buffer B (15 mM Tris, pH 7.5, 10 mM MgCl2, 0.01% Pluronic F-68, 37.5 µg/ml tubulin, 1.25 µM paclitaxel). The reaction was carried out in a 384-well microplate. The test compound and the recombinant human KIF18A protein (final concentration of 100 nM, entrusted to GenScript for expression) were added into the wells and incubated at room temperature for 20 minutes, and subsequently, an ATP solution (component V915A from the ADP-Glo™ Kinase Assay kit, final concentration of 60 µM) was added to the reaction solution and the system was incubated at room temperature for 20 minutes. Subsequently, 5 µL of ADP-Glo Reagent was added to the reaction systemand the system was incubated at room temperature for 50 minutes. Then, 10 µL of Kinase Detection Reagent was added to the reaction system and the system was incubated at room temperature for 30 minutes. After the incubation was ended, a chemiluminiscence intensity value of each well was determined by a microplate reader in a Luminescence mode.

[2] = system: OVCAR-3 cells; test: Inhibition of OVCAR-3 cell proliferation (CellTiter-Glo cell viability); assay type: cell-based; conditions: Homo sapiens; OVCAR-3 cells (TP53 R248Q mutation), 72 hours culture with compound; read-out: IC50
Experimental: Influences of the compounds of the present invention on OVCAR-3 cell proliferation were determined by the following method. OVCAR-3 cells (containing TP53 R248Q mutation) were purchased from the Cell Bank of Shanghai Institute of Biochemistry and Cell Biology, Chinese Academy of Sciences, and cultured in an RPMI 1640 culture medium containing 10% fetal bovine serum, 100 U penicillin and 100 µg/mL streptomycin. A cell viability was determined by a CellTiter-Glo® Luminescent Cell Viability Assay kit (Promega, article number G7573).
An experimental method was operated according to steps in the instruction of the kit, which was briefly described as follows: a test compound was dissolved in DMSO first to prepare a 10 mM stock solution, then the stock solution was diluted with the culture medium to prepare a test sample, and a final concentration of the compound was in a range of 1000 nM-0.015 nM. Cells in a logarithmic growth phase were inoculated into a 96-well cell culture plate at a density of 1000 cells per well, cultured in a 5% CO2 incubator at 37°C overnight, and then the test compound was added to continuously culture for 72 hours. After the culture was ended, 50 uL of CellTiter-Glo detection solution was added to each well , shaken for 5 minutes, and then allowed to stand for 10 minutes, and subsequently, a luminance value of each well of the sample was read by a microplate reader in a Luminescence mode. By comparing with the numerical value of a control group (0.3% DMSO), a percentage inhibition rate of the compound at each concentration point was calculated, and then nonlinear regression analysis was carried out based on concentration logarithm-inhibition rate of the compound in GraphPad Prism 5 software, so as to obtain an IC50 value of the compound for inhibiting the cell proliferation, which was as shown in Table 1. Table 1 IC50 data of the compounds of the present invention for inhibiting OVCAR-3 cell proliferation

T1 sequence (Q8NI77 whole entry): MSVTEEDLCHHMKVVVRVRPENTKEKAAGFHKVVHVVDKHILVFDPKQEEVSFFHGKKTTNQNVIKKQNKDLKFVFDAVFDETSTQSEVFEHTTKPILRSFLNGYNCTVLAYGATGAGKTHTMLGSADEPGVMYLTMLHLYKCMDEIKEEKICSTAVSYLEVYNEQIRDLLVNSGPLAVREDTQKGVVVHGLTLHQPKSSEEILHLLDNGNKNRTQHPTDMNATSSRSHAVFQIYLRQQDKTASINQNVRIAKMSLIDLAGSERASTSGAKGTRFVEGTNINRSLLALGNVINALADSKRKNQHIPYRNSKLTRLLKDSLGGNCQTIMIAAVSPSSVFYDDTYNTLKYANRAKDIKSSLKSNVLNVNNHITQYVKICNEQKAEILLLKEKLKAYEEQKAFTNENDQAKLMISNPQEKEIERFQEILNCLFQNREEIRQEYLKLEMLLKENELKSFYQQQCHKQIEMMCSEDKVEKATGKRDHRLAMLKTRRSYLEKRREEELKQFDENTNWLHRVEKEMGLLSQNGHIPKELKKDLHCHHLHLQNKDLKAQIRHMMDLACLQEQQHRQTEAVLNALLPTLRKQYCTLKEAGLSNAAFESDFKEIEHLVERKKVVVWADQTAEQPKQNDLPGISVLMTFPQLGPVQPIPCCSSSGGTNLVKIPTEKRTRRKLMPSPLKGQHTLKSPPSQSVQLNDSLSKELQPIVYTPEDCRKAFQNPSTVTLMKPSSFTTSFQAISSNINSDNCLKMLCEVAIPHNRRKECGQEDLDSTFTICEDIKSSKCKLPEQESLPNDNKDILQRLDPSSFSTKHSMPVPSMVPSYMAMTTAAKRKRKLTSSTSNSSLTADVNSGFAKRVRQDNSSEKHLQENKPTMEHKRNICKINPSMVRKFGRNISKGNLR
T1 sequence (P68363 whole entry partner): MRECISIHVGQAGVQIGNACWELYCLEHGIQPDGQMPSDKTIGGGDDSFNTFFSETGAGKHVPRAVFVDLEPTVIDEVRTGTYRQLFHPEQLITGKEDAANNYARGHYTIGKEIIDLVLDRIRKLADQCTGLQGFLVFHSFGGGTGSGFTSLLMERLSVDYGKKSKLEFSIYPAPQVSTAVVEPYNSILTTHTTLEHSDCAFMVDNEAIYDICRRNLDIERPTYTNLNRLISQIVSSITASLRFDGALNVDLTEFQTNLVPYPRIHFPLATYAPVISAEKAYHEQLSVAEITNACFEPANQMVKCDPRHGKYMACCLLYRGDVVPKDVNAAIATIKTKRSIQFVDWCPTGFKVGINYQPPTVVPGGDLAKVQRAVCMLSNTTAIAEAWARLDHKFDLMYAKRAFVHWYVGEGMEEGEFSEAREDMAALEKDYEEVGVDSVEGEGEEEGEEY
T1 sequence (Q9BVA1 whole entry partner): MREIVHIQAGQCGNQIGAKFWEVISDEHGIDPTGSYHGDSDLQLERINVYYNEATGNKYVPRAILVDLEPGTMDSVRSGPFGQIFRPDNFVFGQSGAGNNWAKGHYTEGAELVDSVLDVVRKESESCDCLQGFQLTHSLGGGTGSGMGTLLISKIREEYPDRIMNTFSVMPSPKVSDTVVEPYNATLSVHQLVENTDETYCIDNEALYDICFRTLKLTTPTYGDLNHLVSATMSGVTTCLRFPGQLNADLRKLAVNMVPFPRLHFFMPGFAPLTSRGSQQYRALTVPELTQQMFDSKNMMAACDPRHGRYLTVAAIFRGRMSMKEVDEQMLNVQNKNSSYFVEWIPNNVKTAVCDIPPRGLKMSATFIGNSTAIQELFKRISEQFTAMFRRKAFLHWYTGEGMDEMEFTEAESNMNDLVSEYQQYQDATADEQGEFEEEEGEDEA

| IC50 [1] [nM] | IC50 [2] [nM] | Structure (SMILES) |
| --- | --- | --- |
| 30.9 | 8.1 | CCS(=O)(=O)Nc1ccc(C(=O)Nc2ccc(-n3cnnc3)c(N3CCC(F)(F)CC3)c2)c(N2CCC3(CC2)CC3)c1 [Example 27, N-(3-(4,4-difluoropiperidin-1-yl)-4-(4H-1,2,4-triazol-4-yl)phenyl)-4-(ethylsulfonamido)-2-(6-azaspiro[2.5]octan-6-yl)benz amide] |
| 3.8 | – | CCS(=O)(=O)Nc1ccc(C(=O)Nc2ccc(-c3nnn[nH]3)c(N3CCC(F)(F)CC3)c2)c(N2CCC3(CC2)CC3)c1 [Example 33, N-(3-(4,4-difluoropiperidin-1-yl)-4-(1H-tetrazol-5-yl)phenyl)-4-(ethylsulfonamido)-2-(6-azaspiro[2.5]octan-6-yl)benzamide] |
| 130 | 45.5 | CCS(=O)(=O)Nc1ccc(C(=O)Nc2ccc(-n3ccnc3)c(C3(O)CCC(F)(F)CC3)c2)c(N2CCC3(CC2)CC3)c1 [Example 44, N-(3-(4,4-difluoro-1-hydroxycyclohexyl)-4-(1H-imidazol-1-yl)phenyl)-4-(ethylsulfonamido)-2-(6-azaspiro[2.5]octan-6-yl)benzamide] |
| 88 | – | CCS(=O)(=O)Nc1ccc(C(=O)Nc2ccc(-n3ccnc3)c(N3CCC(C)(O)CC3)c2)c(N2CCC3(CC2)CC3)c1 [Example 42, 4-(ethylsulfonamido)-N-(3-(4-hydroxy-4-methylpiperidin-1-yl)-4-(1H-imidazol-1-yl)pheny 1)-2-(6-azaspiro[2.5]octan-6-yl)benzamide] |
| 29.5 | 42.9 | CCS(=O)(=O)Nc1ccc(C(=O)Nc2ccc(C(=O)O)c(N3CCC(F)(F)CC3)c2)c(N2CCC3(CC2)CC3)c1 [Example 2, 2-(4,4-difluoropiperidin-1-yl)-4-(4-(ethylsulfonamido)-2-(6-azaspiro[2.5]octan-6-yl)benzamido)benzoic acid] |
| 90 | 49.8 | CCS(=O)(=O)Nc1ccc(C(=O)Nc2ccc(-c3nnnn3C)c(N3CCC(F)(F)CC3)c2)c(N2CCC3(CC2)CC3)c1 [Example 34, N-(3-(4,4-difluoropiperidin-1-yl)-4-(1-methyl-1H-tetrazol-5-yl)phenyl)-4-(ethylsulfonamido)-2-(6-azaspiro[2.5]octan-6-yl)benzamide] |
| 107 | 27.4 | CCS(=O)(=O)Nc1ccc(C(=O)Nc2ccc(-c3nnco3)c(OCC(F)(F)F)c2)c(N2CCC3(CC2)CC3)c1 [Example 51, N-(4-(1,3,4-oxadiazol-2-yl)-3-(2,2,2-trifluoroethoxy)phenyl)-4-(ethylsulfonamido)-2-(6-azaspiro[2.5]octan-6-yl)benzamide] |
| 125 | 17.9 | CCS(=O)(=O)Nc1ccc(C(=O)Nc2ccc(-c3nnc(C)o3)c(OCC(F)(F)F)c2)c(N2CCC3(CC2)CC3)c1 [Example 52, 4-(ethylsulfonamido)-N-(4-(5-methyl-1,3,4-oxadiazol-2-yl)-3-(2,2,2-trifluoroethoxy)phenyl) -2-(6-azaspiro[2.5]octan-6-yl) benzamide] |
| 115 | 18.8 | CCS(=O)(=O)Nc1ccc(C(=O)Nc2ccc(-c3ncc[nH]3)c(N3CCC(C)(O)CC3)c2)c(N2CCC3(CC2)CC3)c1 [Example 43, 4-(ethylsulfonamido)-N-(3-(4-hydroxy-4-methylpiperidin-1-yl)-4-(1H-imidazol-2-yl)pheny 1)-2-(6-azaspiro[2.5]octan-6-yl)benzamide] |

| Structure (SMILES) | IC50 [1] [nM] | IC50 [2] [nM] |
| --- | --- | --- |
| CCS(=O)(=O)Nc1ccc(C(=O)Nc2ccc(-c3nnco3)c(OC3CC(F)(F)C3)c2)c(N2CCC3(CC2)CC3)c1 [Example 50, N-(3-(3,3-difluorocyclobutoxy)-4-(1,3,4-oxadiazol-2-yl)phenyl)-4-(ethylsulfonamido)-2-(6-azaspiro[2.5]octan-6-yl)benzamide] | 74.3 | 19.1 |
| CCS(=O)(=O)Nc1ccc(C(=O)Nc2ccc(-c3ccnnc3)c(OC3CC(F)(F)C3)c2)c(N2CCC3(CC2)CC3)c1 [Example 48, N-(3-(3,3-difluorocyclobutoxy)-4-(pyridazin-4-yl)phenyl)-4-(ethylsulfonamido)-2-(6-azaspiro[2.5]octan-6-yl)benzamide] | 102 | 14.4 |
